Values quoted from earlier work, collected in patent US20190279737A1, “METHOD OF DISCOVERING NEW DRUG CANDIDATE TARGETING DISORDER-TO-ORDER TRANSITION REGION AND APPARATUS FOR DISCOVERING NEW DRUG CANDIDATE” (INDUSTRY-UNIVERSITY COOPERATION FOUNDATION HANYANG …, priority 2016, published 2019).

Molecular target: Myc (Homo sapiens, UniProt P01106)
Conditions: Follis et al. 2008

Sequence of Myc (P01106 16-454, species assumed): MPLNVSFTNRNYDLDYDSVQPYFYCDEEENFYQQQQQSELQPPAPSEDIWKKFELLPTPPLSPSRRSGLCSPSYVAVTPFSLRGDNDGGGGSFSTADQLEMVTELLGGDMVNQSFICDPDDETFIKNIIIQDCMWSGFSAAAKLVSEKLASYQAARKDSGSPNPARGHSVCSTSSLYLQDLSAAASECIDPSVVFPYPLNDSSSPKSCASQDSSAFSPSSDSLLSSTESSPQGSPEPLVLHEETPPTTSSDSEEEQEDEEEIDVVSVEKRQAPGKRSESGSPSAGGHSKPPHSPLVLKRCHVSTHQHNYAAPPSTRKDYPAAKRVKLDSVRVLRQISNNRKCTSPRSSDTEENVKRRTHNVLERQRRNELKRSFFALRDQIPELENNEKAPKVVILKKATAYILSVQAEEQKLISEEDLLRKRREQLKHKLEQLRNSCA

CCc1ccc(/C=C2/SC(=S)NC2=O)cc1 [10058-F4]
region of Myc bound: specifically binds to a 402-412 region of Myc
